Measurements as given in ChEMBL document CHEMBL3885881, “DrugMatrix”.
“And” between values parts separate entries of the source, which are not always exact repeats. Identical values can stand only once.

Organism: Rattus norvegicus
Assay: DrugMatrix - Regimen: Daily Repeat
Assay type: toxicity, organism-based, Sprague-Dawley
Design: regimen Daily Repeat, gender Male, age 6-8 weeks
Conditions: in vivo, vehicle 100 % SALINE
[1] = iv, 15 mg/kg, 72 h, tissue Plasma, dose level High, time 3 day
[2] = iv, 15 mg/kg, 120 h, tissue Blood, dose level High, time 5 day
[3] = iv, 15 mg/kg, 120 h, tissue Plasma, dose level High, time 5 day
[4] = sc, 0 mg/kg, 72 h, tissue Blood, route mini-PUMP - SUBCUTANEOUS, dose level Control, time 3 day
[5] = sc, 0 mg/kg, 72 h, tissue Plasma, route mini-PUMP - SUBCUTANEOUS, dose level Control, time 3 day
[6] = sc, 0 mg/kg, 120 h, tissue Blood, route mini-PUMP - SUBCUTANEOUS, dose level Control, time 5 day
[7] = sc, 0 mg/kg, 120 h, tissue Plasma, route mini-PUMP - SUBCUTANEOUS, dose level Control, time 5 day

Compound: CC(C)NCC(O)c1ccc(O)c(O)c1 (stereo not given) [ISOPROTERENOL]
- POTASSIUM [1]: 6.86 MEQ/L
- SODIUM [1]: 146.03 MEQ/L
- TOTAL BILIRUBIN [1]: 0.13 mg/dL
- TOTAL PROTEIN [1]: 5.8 G/DL
- URIC ACID [1]: 1.53 mg/dL
- ABSOLUTE BASOPHIL [2]: 0 CELLS/uL
- ABSOLUTE EOSINOPHIL [2]: 89.33 CELLS/uL
- ABSOLUTE LYMPHOCYTE [2]: 14556.33 CELLS/uL
- ABSOLUTE MONOCYTE [2]: 270.67 CELLS/uL
- ABSOLUTE SEGMENTED NEUTROPHIL [2]: 850.33 CELLS/uL
- BASOPHIL [2]: 0%
- EOSINOPHIL [2]: 0.67%
- ERYTHROCYTE COUNT [2]: 5.8 x10E6/uL
- HEMATOCRIT [2]: 37.17%
- HEMOGLOBIN [2]: 13.6 G/DL
- LEUKOCYTE COUNT [2]: 15.77 x10E3/uL
- LYMPHOCYTE [2]: 92%
- MEAN CORPUSCULAR HEMOGLOBIN [2]: 23.53 pg
- MEAN CORPUSCULAR HEMOGLOBIN CONCENTRATION [2]: 36.7 G/DL
- MEAN CORPUSCULAR VOLUME [2]: 64.07 fL
- MONOCYTE [2]: 1.67%
- NEUTROPHIL [2]: 5.67%
- NUCLEATED RED BLOOD CELLS [2]: 0 /100WBC
- PLATELET COUNT [2]: 1301.33 x10E3/uL
- ALANINE AMINOTRANSFERASE [3]: 56 u/L
- ALBUMIN [3]: 4.03 G/DL
- ALKALINE PHOSPHATASE [3]: 369.67 u/L
- ASPARTATE AMINOTRANSFERASE [3]: 62.33 u/L
- BLOOD UREA NITROGEN [3]: 14.33 mg/dL
- CARBON DIOXIDE [3]: 30.33 mmol/L
- CHLORIDE [3]: 103.67 MEQ/L
- CHOLESTEROL [3]: 65.67 mg/dL
- CREATINE PHOSPHOKINASE [3]: 190.67 u/L
- CREATININE [3]: 0.23 mg/dL
- GLUCOSE [3]: 141 mg/dL
- LACTATE DEHYDROGENASE [3]: 80 u/L
- LIPASE [3]: 9 u/L
- PHOSPHORUS [3]: 11.63 mg/dL
- POTASSIUM [3]: 6.67 MEQ/L
- SODIUM [3]: 146.27 MEQ/L
- TOTAL BILIRUBIN [3]: 0.2 mg/dL
- TOTAL PROTEIN [3]: 6.13 G/DL
- URIC ACID [3]: 1.43 mg/dL
- ABSOLUTE SEGMENTED NEUTROPHIL [4]: 1658.33 CELLS/uL
- BASOPHIL [4]: 0.3% and 0%
- EOSINOPHIL [4]: 0.43% and 0.5%
- ERYTHROCYTE COUNT [4]: 6.91 x10E6/uL and 6.27 x10E6/uL
- HEMATOCRIT [4]: 45.43% and 36.95%
- HEMOGLOBIN [4]: 14.37 G/DL and 13.4 G/DL
- LEUKOCYTE COUNT [4]: 12.09 x10E3/uL and 16.38 x10E3/uL
- LYMPHOCYTE [4]: 81.73% and 87.17%
- MEAN CORPUSCULAR HEMOGLOBIN [4]: 20.8 pg and 21.42 pg
- MEAN CORPUSCULAR HEMOGLOBIN CONCENTRATION [4]: 31.67 G/DL and 36.27 G/DL
- MEAN CORPUSCULAR VOLUME [4]: 65.83 fL and 59.03 fL
- MONOCYTE [4]: 1.83% and 2%
- NEUTROPHIL [4]: 15.07% and 10.33%
- NUCLEATED RED BLOOD CELLS [4]: 0 /100WBC
- PLATELET COUNT [4]: 1299.67 x10E3/uL and 904.67 x10E3/uL
- ALANINE AMINOTRANSFERASE [5]: 34.33 u/L and 48.33 u/L
- ALBUMIN [5]: 3.83 G/DL and 3.82 G/DL
- ALKALINE PHOSPHATASE [5]: 333.67 u/L and 282.33 u/L
- ASPARTATE AMINOTRANSFERASE [5]: 68 u/L and 86.83 u/L
- BLOOD UREA NITROGEN [5]: 19.33 mg/dL and 20.17 mg/dL
- CARBON DIOXIDE [5]: 43 mmol/L and 34.67 mmol/L
- CHLORIDE [5]: 103.67 MEQ/L and 102 MEQ/L
- CHOLESTEROL [5]: 84.33 mg/dL and 71.5 mg/dL
- CREATINE PHOSPHOKINASE [5]: 334.33 u/L
- CREATININE [5]: 0.53 mg/dL and 0.2 mg/dL
- GLUCOSE [5]: 156.67 mg/dL and 136.83 mg/dL
- LACTATE DEHYDROGENASE [5]: 159 u/L
- PHOSPHORUS [5]: 9.8 mg/dL and 10.12 mg/dL
- POTASSIUM [5]: 5.93 MEQ/L and 5.92 MEQ/L
- SODIUM [5]: 146.33 MEQ/L and 147.8 MEQ/L
- TOTAL BILIRUBIN [5]: 0.37 mg/dL and 0.2 mg/dL
- TOTAL PROTEIN [5]: 6.4 G/DL and 6.05 G/DL
- URIC ACID [5]: 0.73 mg/dL and 1.4 mg/dL
- ABSOLUTE SEGMENTED NEUTROPHIL [6]: 3216.67 CELLS/uL
- BASOPHIL [6]: 0.2% and 0%
- EOSINOPHIL [6]: 0.33% and 0%
- ERYTHROCYTE COUNT [6]: 6.81 x10E6/uL and 6.11 x10E6/uL
- HEMATOCRIT [6]: 44.33% and 36.22%
- HEMOGLOBIN [6]: 13.77 G/DL and 13.18 G/DL
- LEUKOCYTE COUNT [6]: 11.2 x10E3/uL and 17.8 x10E3/uL
- LYMPHOCYTE [6]: 80.33% and 80.5%
- MEAN CORPUSCULAR HEMOGLOBIN [6]: 20.23 pg and 21.62 pg
- MEAN CORPUSCULAR HEMOGLOBIN CONCENTRATION [6]: 31.03 G/DL and 36.42 G/DL
- MEAN CORPUSCULAR VOLUME [6]: 65.1 fL and 59.37 fL
- MONOCYTE [6]: 2.1% and 1.83%
- NEUTROPHIL [6]: 16.43% and 17.67%
- NUCLEATED RED BLOOD CELLS [6]: 0 /100WBC
- PLATELET COUNT [6]: 1573.33 x10E3/uL and 1311 x10E3/uL
- ALANINE AMINOTRANSFERASE [7]: 38 u/L and 47 u/L
- ALBUMIN [7]: 3.87 G/DL and 3.83 G/DL
- ALKALINE PHOSPHATASE [7]: 303.67 u/L and 260.33 u/L
- ASPARTATE AMINOTRANSFERASE [7]: 72.67 u/L and 76.17 u/L
- BLOOD UREA NITROGEN [7]: 17.33 mg/dL and 14.67 mg/dL
- CARBON DIOXIDE [7]: 41.33 mmol/L and 31.33 mmol/L
- CHLORIDE [7]: 104.33 MEQ/L and 101.17 MEQ/L
- CHOLESTEROL [7]: 74.33 mg/dL and 75 mg/dL
- CREATINE PHOSPHOKINASE [7]: 286.67 u/L
- CREATININE [7]: 0.47 mg/dL and 0.16 mg/dL
- GLUCOSE [7]: 152.33 mg/dL and 152.67 mg/dL
- LACTATE DEHYDROGENASE [7]: 147.33 u/L
- PHOSPHORUS [7]: 10 mg/dL and 10.97 mg/dL
- POTASSIUM [7]: 6.4 MEQ/L and 6 MEQ/L
- SODIUM [7]: 146 MEQ/L and 145.52 MEQ/L
- TOTAL BILIRUBIN [7]: 0.43 mg/dL and 0.17 mg/dL
- TOTAL PROTEIN [7]: 6.27 G/DL and 5.83 G/DL
- URIC ACID [7]: 0.83 mg/dL and 1.27 mg/dL
- ABSOLUTE SEGMENTED NEUTROPHIL (sc, 0 mg/kg, […], tissue Blood, route mini-PUMP - SUBCUTANEOUS, dose level Control, time 14 day): 2414 CELLS/uL
